Values joined by “and” are separate entries in the source; they are usually repeats but may differ in a detail not shown here. Equal values may be shown once.
System: 857933-349-R-J2-PDC complex spheroids, viability
Assay: Anticancer human tumor 857933-349-R-J2-PDC patient-derived colon adenocarcinoma cell line growth inhibition [GQUAD]
Conditions: for viability, T/C: stronger effect = lower value
Text: DNA G-quadruplex Stabilizer Agents in Combinations in Complex Spheroids
A high-throughput screen of multi-cell type tumor spheroids was designed to identify active combinations of DNA G-quadruplex stabilizer agents and targeted small molecules. Complex spheroids include a stromal component modeled by human endothelial cells (HUVEC) and fibroblasts modeled by human mesenchymal stem cells (MSCs). The concentration ranges selected for each drug and investigational agent were based upon clinically achievable concentrations if the clinical Cmax of the agent was known.
Compounds. The drugs and investigational agents: pidnarulex (CX-5461; NSC782164), APTO-253 (NSC789042), BRACO-19 (NSC847499), peposertib (NSC802822), ceralasertib (NSC780249), elimusertib (NSC800525), camonsertib (NSC841442), AZD-1390 (NSC803789), olaparib (NSC753686), talazoparib (NSC767125), ART-558 (NSC835418), sotorasib (NSC818433), MRTX-1133 (NSC836407), SN-38 (NSC673596), topotecan (NSC609699), etoposide (NSC141540), doxorubicin (NSC123127), gemcitabine (NSC613327), 5-fluorouracil (NSC19893), paclitaxel (NSC125973), vemurafenib (NSC761431), panobinostat (NSC761190), R-306465 (JNJ-16241199; NSC773264), adavosertib (NSC754352), TP-3654 (NSC805149), carboplatin (NSC241240), KSQ-4279 (NSC840948), and staurosporine (NSC755774) were obtained from the National Cancer Institute (NCI) Developmental Therapeutics Program Chemical Repository (34). The FDA-approved anticancer drug set is available from the NCI Developmental Therapeutics Program. […] The stock solutions were prepared in dimethyl sulfoxide (DMSO, Sigma-Aldrich, St. Louis, MO, cat. D2650) at 800-fold the tested concentration and stored at -70 degrees C prior to their use. All drugs and investigational agents were tested over a range starting from a high concentration at or near the clinical Cmax and decreasing in half-log increments. If the clinical Cmax for an agent had not been determined, the highest concentration tested was 10 microM.
2.3 Cell Culture. All cells were maintained in an incubator at 37 degrees C and 5% CO2 with 95% humidity. The PDC lines were cultured according to standard operating procedures established by the NCI PDMR. All PDCs were thawed and cultured in Matrigel-coated flasks prepared with a working solution of 1X Ham's F-12 nutrient mix, without supplementation (Invitrogen, cat. 11765054), 100 U/mL penicillin-streptomycin (Invitrogen, cat. 15140122), and 2.5% Matrigel (Corning Inc., cat. 354248) for the first three passages. The 857933-349-R-J2-PDC line was cultured in 6C/Colon 1B media, which includes advanced DMEM/F-12 (Thermo Fisher Scientific, cat. 12634028), 10 mM HEPES (Thermo Fisher Scientific, cat. 15630080), 1X GlutaMAX supplement (Thermo Fisher Scientific, cat. 35050061), 0.1 mg/mL primocin (InvivoGen, cat. ant-pm-2), 10% defined fetal bovine serum, heat inactivated (HyClone Laboratories Inc., cat. SH30070.03HI), 50% L-WRN conditioned media (ATCC, cat. CRL-3276), 1.25 mM N-Acetyl-L-cysteine (Sigma-Aldrich, cat. A9165), 10 mM nicotinamide (Sigma-Aldrich, cat. N0636), 1X B-27 supplement (Thermo Fisher Scientific, cat. 17504044), 1X N-2 supplement (Thermo Fisher Scientific, cat. 17502048), 10 microM Y-27632 dihydrochloride (Tocris Bioscience, cat. 1254), and 50 ng/mL human EGF recombinant protein (Thermo Fisher Scientific, cat. PHG0311). The 485176-168-R4-J1-PDC line was cultured in Panc media, which includes all 6C/Colon 1B media components plus 100 ng/mL human FGF-10 (Thermo Fisher Scientific, cat. 100-26), 500 nM SB-431542 (Selleckchem, cat. S1067), and gastrin (Tocris, cat. 3006).
[…]
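Further: spheroids exposed to compounds for one week before readout.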
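Wherever viability, T/C is given: percent viability relative to vehicle DMSO wells taken as 100%.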

In the case of `CC[C@@]1(O)C(=O)OCc2c1cc1n(c2=O)Cc2cc3c(CN(C)C)c(O)ccc3nc2-1`, the viability, T/C (compound 0.000999 µM) is reported as 98.7% and 105% and 103%, the viability, T/C (compound 0.00316 µM) is reported as 82.7% and 104% and 89% and the viability, T/C (compound 0.00999 µM) is reported as 92.6% and 97.9% and 98.2%. The viability, T/C (compound 0.0316 µM) was 70.4% and 96.6% and 71.6%, the viability, T/C (compound 0.0999 µM) was 52.3% and 67.8% and 57.9% and the viability, T/C (compound 0.316 µM) was 40.8% and 48.1% and 34.1%. For the same molecule, the IC50 (curve of compound) was 0.115 µM and 0.282 µM and 0.138 µM.
`Cc1cnc(CNC(=O)c2c(=O)c3ccc(N4CCCN(C)CC4)nc3n3c2sc2ccccc23)cn1` was tested, and the viability, T/C (compound 0.0316 µM) was 92.5% [middle of 12 runs], the viability, T/C (compound 0.1 µM) was 69.2% [middle of 11 runs] and the viability, T/C (compound 0.316 µM) was 26.9% [middle of 12 runs]. For the same molecule, the viability, T/C (compound 1 µM) was 5.05% [middle of 12 runs], the viability, T/C (compound 3.16 µM) was 2.9% [middle of 12 runs] and the viability, T/C (compound 10 µM) was 1.41% [middle of 12 runs]. For the same molecule, the IC50 (compound alone, run of 02/20/2024) was 169 nM [middle of 10 runs].
For `CCc1c2c(nc3ccc(O)cc13)-c1cc3c(c(=O)n1C2)COC(=O)[C@]3(O)CC`, the viability, T/C (compound 0.000999 µM) was 85.5% and 93.5% and 77.5%, the viability, T/C (compound 0.00316 µM) was 48.9% and 84.5% and 50.1% and the viability, T/C (compound 0.00999 µM) was 50% and 57.4% and 48.4%. The viability, T/C (compound 0.0316 µM) was 28% and 35.3% and 21.5%, the viability, T/C (compound 0.0999 µM) was 15.3% and 20.7% and 13% and the viability, T/C (compound 0.316 µM) was 11.9% and 6.62% and 10.2%. For the same molecule, the IC50 (curve of compound) was 0.00562 µM and 0.016 µM and 0.00484 µM.
`CCCS(=O)(=O)Nc1ccc(F)c(C(=O)c2c[nH]c3ncc(-c4ccc(Cl)cc4)cc23)c1F` was tested, and the viability, T/C (compound 0.0316 µM) was 104% and 111% and 98.5%, the viability, T/C (compound 0.1 µM) was 97.2% and 102% and 92% and the viability, T/C (compound 0.316 µM) was 97.4% and 105% and 95.5%. For the same molecule, the viability, T/C (compound 1 µM) was 102% and 101% and 96.5%, the viability, T/C (compound 3.16 µM) was 84.9% and 90.6% and 95.8% and the viability, T/C (compound 10 µM) was 4.82% and 5.71% and 6.52%. The IC50 (curve of compound) was 5.23 µM and 5.49 µM and 5.7 µM.
With `CCCS(=O)(=O)Nc1ccc(F)c(C(=O)c2c[nH]c3ncc(-c4ccc(Cl)cc4)cc23)c1F` + Cc1[nH]c2ccc(F)cc2c1-c1nc2c3cccnc3c3ncccc3c2[nH]1 the IC50 (curve of first compound, second compound 0.0316 µM) was 5.43 µM, the IC50 (curve of first compound, second compound 0.1 µM) was 5.23 µM and the IC50 (curve of first compound, second compound 0.316 µM) was 5.23 µM. The IC50 (curve of first compound, second compound 1 µM) was 5.11 µM, the IC50 (curve of first compound, second compound 3.16 µM) was 5.01 µM and the IC50 (curve of first compound, second compound 10 µM) was 4.74 µM. It also gave a viability, T/C (second compound 0.0316 µM, first compound 0.0316 µM) of 101%, a viability, T/C (second compound 0.0316 µM, first compound 0.1 µM) of 98.1% and a viability, T/C (second compound 0.0316 µM, first compound 0.316 µM) of 94.7%. It also gave a viability, T/C (second compound 0.0316 µM, first compound 1 µM) of 115%, a viability, T/C (second compound 0.0316 µM, first compound 3.16 µM) of 89.8% and a viability, T/C (second compound 0.0316 µM, first compound 10 µM) of 4.88%. The viability, T/C (second compound 0.1 µM, first compound 0.0316 µM) was 97.8%, the viability, T/C (second compound 0.1 µM, first compound 0.1 µM) was 97.7% and the viability, T/C (second compound 0.1 µM, first compound 0.316 µM) was 102%. For the same molecule, the viability, T/C (second compound 0.1 µM, first compound 1 µM) was 105%, the viability, T/C (second compound 0.1 µM, first compound 3.16 µM) was 85% and the viability, T/C (second compound 0.1 µM, first compound 10 µM) was 4.75%. The viability, T/C (second compound 0.316 µM, first compound 0.0316 µM) was 97.8%, the viability, T/C (second compound 0.316 µM, first compound 0.1 µM) was 97.5% and the viability, T/C (second compound 0.316 µM, first compound 0.316 µM) was 96%. For the same molecule, the viability, T/C (second compound 0.316 µM, first compound 1 µM) was 94.3%, the viability, T/C (second compound 0.316 µM, first compound 3.16 µM) was 84.4% and the viability, T/C (second compound 0.316 µM, first compound 10 µM) was 5.8%. It also gave a viability, T/C (second compound 1 µM, first compound 0.0316 µM) of 97.1%, a viability, T/C (second compound 1 µM, first compound 0.1 µM) of 85.1% and a viability, T/C (second compound 1 µM, first compound 0.316 µM) of 90.2%. The viability, T/C (second compound 1 µM, first compound 1 µM) was 82.8%, the viability, T/C (second compound 1 µM, first compound 3.16 µM) was 81.1% and the viability, T/C (second compound 1 µM, first compound 10 µM) was 6.53%. For the same molecule, the viability, T/C (second compound 3.16 µM, first compound 0.0316 µM) was 84.4%, the viability, T/C (second compound 3.16 µM, first compound 0.1 µM) was 74.2% and the viability, T/C (second compound 3.16 µM, first compound 0.316 µM) was 79.1%. The viability, T/C (second compound 3.16 µM, first compound 1 µM) was 74.2%, the viability, T/C (second compound 3.16 µM, first compound 3.16 µM) was 82.9% and the viability, T/C (second compound 3.16 µM, first compound 10 µM) was 6.5%. For the same molecule, the viability, T/C (second compound 10 µM, first compound 0.0316 µM) was 82.7%, the viability, T/C (second compound 10 µM, first compound 0.1 µM) was 85.2% and the viability, T/C (second compound 10 µM, first compound 0.316 µM) was 80.5%. For the same molecule, the viability, T/C (second compound 10 µM, first compound 1 µM) was 84.5%, the viability, T/C (second compound 10 µM, first compound 3.16 µM) was 73.7% and the viability, T/C (second compound 10 µM, first compound 10 µM) was 6.22%.

Source: PubChem BioAssay AID2060491 (Molecular Pharmacology Branch, DTP, NCI, 2025)
